Among the data in a melting point compilation (Tetko et al.; mined from patent text by program, amines drawn as free bases though some values may be those of a salt) are melting point values, retold here.

Structures are written as SMILES.

With `O=C(O)C(Cc1ccccc1)Oc1ccc(-c2ccc(-c3c(Cc4ccccc4)oc4ccccc34)cc2)cc1Br` (stereo not given), the melting point lay in the range of 80 to 82 °C.

As to `CC[C@@H](c1ccccc1)N(Cc1ccc(C(=O)OC)c(F)c1F)S(=O)(=O)c1ccc(Cl)cc1`, the melting point fell in the range of 87 to 89 °C.

As for `CCc1nn(C[C@@H]2CCCN2C)c(C(N)=O)c1[N+](=O)[O-]`, the melting point fell in the range of 148 to 150 °C.

In turn, `COC(=O)C=CN1CCN(c2cccc(-n3cnc4cc(-c5ccoc5)ccc43)c2)CC1` had a melting point of 168 to 171 °C.

Compound `COc1ccc2c(c1)CCN(C(=O)OCc1ccccc1)C21CCC(C(=O)O)(C(=O)O)CC1` showed a melting point of 193 to 194 °C.

On to `O=C(O)CCc1cnoc1-c1ccc(Cl)cc1Cl`, for which the melting point lay within 106 to 107 °C.

In the case of `COc1ccc(-n2cnc(-c3cc(OC)cc(OC)c3)c2-c2ccc(OC)c(O)c2)cc1`, the melting point fell in the range of 131 to 134 °C.

Regarding `CCCC(CCC)C(=O)NCC(=O)CCCCCCCCCCCCN(N)C(=O)n1cc(F)c(=O)[nH]c1=O`, the melting point lay within 116 to 118 °C.

`CC1CCC2(C(=O)O)CCC3(C)C(=CCC4C5(C)CC(O)C(O)C(C)(CO)C5CCC43C)C2C1C` (stereo not given) registered a melting point of 300 to 310 °C.

Turning to `N#CN=C(Nc1ccccc1)Nc1ccc(C#N)cc1O`, the melting point lay in the range of 270 to 271 °C.

Take `O=C1C(c2ccccc2)=C(c2c(Cl)cccc2Cl)C(=O)N1c1ccc(Cl)cc1`: the melting point came to 134 °C.

As for `Cc1nc(C)n(-c2cc(C)c3[nH]c(=O)ccc3c2)c1[N+](=O)[O-]`, the melting point is 244 to 247 °C.

In turn, `CCC(=O)Cc1ccc(C(=O)Nc2ccc3cc(CN4CCCC4)cnc3c2C)cc1` had a melting point of 157 °C.

Turning to `O=C(Nc1ccccc1)OCC1(COC(=O)Nc2ccccc2)CS(=O)(=O)c2ccccc2C1=O`, the melting point fell in the range of 72 to 78 °C.

With `CSC(SC)c1cnn(-c2c(Cl)cc(C(F)(F)F)cc2Cl)n1`, the melting point lay in the range of 67 to 68 °C.

`CN1C(=O)C(N)C(=O)N(C23CC4CC(CC(C4)C2)C3)c2ccccc21` (stereo not given): the melting point was 194 °C.

On to `CCOC(=O)c1c(C(F)(F)F)nc(C(F)(F)F)c(C(=O)O)c1Cl`, for which the melting point lay within 113 to 115 °C.

`CC(C)(C)OCC1C(=O)C(C)(C)C(=O)N1c1ccc(C#N)c(Cl)c1` (stereo not given) came in with a melting point of 124 to 125 °C.

As for `Cc1ccc(N2C(=O)C=CC2=O)cc1N1C(=O)C=CC1=O`, the melting point was in the range of 168 to 172 °C.

`C=CCC1(c2ccc(Br)cc2)C2CCC(C(=O)C2)C1Nc1ccc(OC)cc1` (stereo not given) came in with a melting point of 68 to 69 °C.

The compound `CCCCCCCC(O)C1(C)OC(C)=C(O)C1=O` (stereo not given) came in with a melting point of 97 to 98 °C.

In turn, `COC(=O)C1=C(C)NC2=C(C(=O)OC2)C1c1ccccc1C` (stereo not given) yielded a melting point of 224 to 225 °C.

The compound `N#Cc1ncc(OC2SCC(O)C(O)C2O)cc1F` (stereo not given) gave a melting point of 155 to 156 °C.

The compound `CC(=O)NC(CC(=O)O)CN(C)C` (stereo not given) yielded a melting point of 202 °C.

In turn, `Cc1c(Cl)cc(O)cc1Cl` registered a melting point of 92 to 93 °C.

Compound `COc1ccc(S(=O)(=O)N(Cc2cccnc2)c2c(C(=O)O)cc(C)cc2-c2ccco2)cc1` had a melting point of 82 °C.

On to `CCSCC(=O)N1CCSC1COc1ccc(OC)cc1` (stereo not given), for which the melting point lay in the range of 98 to 110 °C.

As to `COC(=O)C(=C(C)C)N1C(=O)C(NC(=O)COc2ccccc2)C1SN1CCCCC1` (stereo not given), the melting point turned out to be 65 °C.

Consider `CSc1ccc(-c2cc(C(F)F)nn2-c2ccc(C(C)=O)cc2)cc1`, for which the melting point lay in the range of 143 to 145 °C.

In the case of `CC1CCCCN1CCC(CCN(C(C)C)C(C)C)(C(N)=O)c1ccccc1F` (stereo not given), the melting point was in the range of 90 to 91 °C.

Turning to `O=C(COc1cc(-c2ccccc2)nc2ccccc12)N1CCOCC1`, the melting point stood at 145 °C.

In turn, `CCC(C)(C)Nc1c(NCc2ccc(Cl)cc2Cl)c(=O)c1=O` yielded a melting point of 196 to 197 °C.

The compound `Brc1cncc(OCc2ccccc2)c1` displayed a melting point of 65 to 67 °C.

On to `O=C(O)C=C(Oc1ccc(OC(F)(F)F)cc1)C(=O)O`, for which the melting point lay in the range of 208 to 210 °C.

On to `CCCCCOc1ccc2cc(CC[C@@](C)(N)COP(=O)(O)O)ccc2c1`, for which the melting point was 266 to 267 °C.

`CSCCn1nc(O)c2[nH]c3cc(Cl)ccc3c(=O)c2c1=O`: the melting point was 275 to 277 °C.

In turn, `CN1C(=O)CN(c2ccccc2)NC1=O` came in with a melting point of 207 to 213 °C.

`Cc1cc(Oc2ncc(C(F)(F)F)cc2Cl)nn1C(=O)OC(C)(C)C` displayed a melting point of 90 to 92 °C.

In turn, `CC(=O)CCCCCCCCCCCCC(C)=O` had a melting point of 80 °C.

`CCOc1nc2c(N)nc(OCCc3ccccc3)nc2n1CC`: the melting point lay within 161 to 164 °C.

In turn, `Cc1ccc2cccc(OCc3c(Cl)ccc(C(=O)O)c3Cl)c2n1` yielded a melting point of 267 to 270 °C.

Turning to `CC(=O)NC(C)=NC(=Nc1ccccc1)N1CCOCC1`, the melting point is 146 to 149 °C.

`FC(F)(F)c1cccc2snnc12` yielded a melting point of 41 to 44 °C.

Regarding `Cc1scc(C2=NOCCO2)c1S(=O)(=O)NC(=O)n1nc(OC(C)C)n(C)c1=O`, the melting point amounted to 199 °C.

The compound `NC(=O)CCCOc1ccc(C23CC4CC(CC(C4)C2)C3)cc1` came in with a melting point of 176 to 177 °C.

As for `Cc1cccc(C)c1C(=Nc1ccc(F)cc1)NC(=NC1CCCCC1)N1CCCCC1C` (stereo not given), the melting point fell in the range of 167 to 168 °C.

Take `CC1(C)NC(=O)c2ccccc21`: the melting point was in the range of 159 to 160 °C.

The compound `COc1cc(C(F)(F)F)nc2c(Cl)ccc(F)c12` gave a melting point of 198 to 200 °C.

Compound `CC(=C1SC(=O)NC1=O)c1ccc(OCCOc2c(-c3ccc(F)cc3)n(C)c3cc(F)ccc3c2=O)cc1` returned a melting point of 276 to 278 °C.

As for `CCN(CC)CCOc1cc(C(=O)NC(=N)N)c(C)c2ccc(OC)cc12`, the melting point was found to be 135 °C.

In the case of `CCc1ccc(-c2cc3ncnc(Nc4ccc5[nH]ccc5c4)c3s2)cc1`, the melting point was in the range of 171 to 182 °C.

The compound `O=C1NCCc2c(-c3ccc(Cl)cc3)[nH]c3cccc1c23` had a melting point of 250 to 252 °C.

In turn, `COc1ccc2ccn(CC(N)=O)c2c1` yielded a melting point of 210 to 211 °C.

`COc1cc2cc(C(C#N)N3CCOCC3)sc2cc1OC` (stereo not given): the melting point is 196 to 199 °C.

As to `CCOC(=O)c1ccccc1Cn1c(C(=O)O)cc2ccccc21`, the melting point amounted to 136 °C.

`O=C(O)c1ccccc1NC(=S)Cc1ccccc1`: the melting point is 166 to 167 °C.

`CC(C)(C)OC(=O)C(Nc1ccccc1)c1cccc(Br)c1` (racemic) had a melting point of 90 °C.

`COc1ccc2cc3c(Cl)c(C#N)cnc3cc2c1` displayed a melting point of 258 to 260 °C.

The compound `OC1CN2[C@H]3CC[C@@H]2[C@@H]1[C@@H](c1ccc(Cl)c(Cl)c1)C3` (stereo not given in full) gave a melting point of 156 to 158 °C.

`[N-]=[N+]=Nc1ccc(Cl)cc1C(=NO)c1ccccc1` displayed a melting point of 125 to 132 °C.

Turning to `CSc1cc2c(cc1F)C(=O)C(=O)N2`, the melting point was determined as 296 °C.

With `N=C(N)c1ccc(N2CCC(N3CCN(CCC(=O)O)C3=O)CC2)cc1`, the melting point was more than 275 °C.

`COc1ccc(NC(=O)c2ccc([N+](=O)[O-])c(C)c2)cc1` registered a melting point of 168 to 169 °C.

On to `CON=C(C1=NOCCO1)c1ccccc1CCl`, for which the melting point was in the range of 93 to 96 °C.

As for `O=C(O)Cn1cc(Cc2nc3c(F)c(F)cc(F)c3s2)c2cc(OCc3ccccc3)ccc21`, the melting point fell in the range of 165 to 168 °C.

One may read the melting point as the temperature, or range, at which the solid turns liquid.
